The text below walks through data of patent US20240368154A1 (GENOSCO Inc., priority 2023, published 2024).

As a reminder, the IC50 is the concentration at which inhibition is half-maximal.

The target in assay [1] is T1, Recombinant ROCK1 (amino acids 1-477) (Homo sapiens, UniProt Q13464).
T1 construct: Recombinant ROCK1 (amino acids 1-477)
In words: ROCK inhibition assay, LANCE Ultra TR-FRET kinase assay. Conditions: at Km of ATP (table title); method: 1 mM ATP, 50 nM ULight-CREBtide substrate, 1 hour, room temperature. The assay is classed as biochemical. On the procedure:
(§1) Kinase IC50 was determined through an in vitro assay based on LANCE Ultra TR-FRET (Time-Resolved Fluorescence Resonance Energy Transfer) homogeneous technologies method (Perkin Elmer). Recombinant ROCK1 (amino acids 1-477) and ROCK2 (amino acids 5-554) proteins were purchased from Carna Biosciences and SignalChem. Compound activities were measured by Envision and IC50s were calculated. The assays were performed in white LUMITRAC™ 200 96 well half-area microplates from Greiner Bio-One. The kinase reaction buffer consisted of 50 mM HEPES pH 7.5, 1 mM EGTA, 10 mM MgCl2, 2 mM DTT and 0.01% Tween-20. Kinases were incubated with 50 nM (ULight-CREBtide) substrate in the presence of 1 mM (ROCK1) or 1 mM (ROCK2) of ATP. The kinase reaction was carried out for 1 hour before addition of a stopping buffer to a final of 10 mM EDTA and 0.6 nM of LANCE Ultra Europium anti-phospho-CREB (Ser133) antibody (PerkinElmer TRF0200) in LANCE detection buffer. All assay incubations were performed at room temperature, and the microplates were sealed with polyester film during that time. The reaction was incubated for 1 hour, and the signal was read in Envision in TR-FRET mode (excitation at 320 nm and emission at 615/665 nm).
(§2) As used herein, a way to describe potency of inhibitory activity (nM) is a value of inhibitory activity at 50% (IC50).
On the technique in general: In TR-FRET formats the signal depends on donor and acceptor labels being close together.

Assay [2] concerns the target T2, Recombinant ROCK2 (amino acids 5-554) (Homo sapiens, UniProt O75116).
T2 construct: ROCK2 (amino acids 5-554)
The assay is described as above. The following applies: at Km of ATP (table title); method: 1 mM ATP, 50 nM ULight-CREBtide substrate, 1 hour, room temperature. The assay is classed as biochemical. On the procedure:
as §1, §2

T2 sequence (O75116 5-554): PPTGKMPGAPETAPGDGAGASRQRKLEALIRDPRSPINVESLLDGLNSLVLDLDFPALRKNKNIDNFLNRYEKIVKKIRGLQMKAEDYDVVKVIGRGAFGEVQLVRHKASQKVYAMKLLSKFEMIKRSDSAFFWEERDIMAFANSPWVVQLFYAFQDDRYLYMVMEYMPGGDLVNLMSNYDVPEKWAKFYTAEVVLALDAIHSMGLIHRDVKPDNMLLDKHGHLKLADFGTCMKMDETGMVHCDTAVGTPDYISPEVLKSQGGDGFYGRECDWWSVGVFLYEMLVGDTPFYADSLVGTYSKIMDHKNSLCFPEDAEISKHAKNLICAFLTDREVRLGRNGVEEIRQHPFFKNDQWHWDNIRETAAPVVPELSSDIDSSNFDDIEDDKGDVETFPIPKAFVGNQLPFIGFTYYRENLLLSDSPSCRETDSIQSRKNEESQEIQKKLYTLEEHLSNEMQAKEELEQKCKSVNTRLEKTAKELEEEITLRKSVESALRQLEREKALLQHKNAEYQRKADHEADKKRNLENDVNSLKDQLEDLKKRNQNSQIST
T1 sequence (Q13464 1-477): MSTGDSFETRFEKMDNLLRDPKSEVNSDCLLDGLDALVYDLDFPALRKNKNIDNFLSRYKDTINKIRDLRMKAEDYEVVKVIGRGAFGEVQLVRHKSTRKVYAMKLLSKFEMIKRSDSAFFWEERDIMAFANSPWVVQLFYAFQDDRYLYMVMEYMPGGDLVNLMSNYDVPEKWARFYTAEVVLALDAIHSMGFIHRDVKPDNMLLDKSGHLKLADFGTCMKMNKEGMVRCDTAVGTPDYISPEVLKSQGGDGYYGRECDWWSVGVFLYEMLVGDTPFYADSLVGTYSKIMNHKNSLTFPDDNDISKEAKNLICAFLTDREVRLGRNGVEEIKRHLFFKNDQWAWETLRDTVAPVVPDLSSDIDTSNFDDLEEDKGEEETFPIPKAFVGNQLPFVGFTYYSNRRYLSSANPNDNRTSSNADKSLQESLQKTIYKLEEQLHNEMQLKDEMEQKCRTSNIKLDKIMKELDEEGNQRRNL

Take `CC(C)(O)Cn1cc(C(=O)C2COc3ccc(Cl)cc3C2)c2cnc(-c3c[nH]nc3Cl)cc21` (stereo not drawn) [Compound 1-16]: the IC50 in assay [1] was 11 to 50 nM; in assay [2], below 10 nM.

`CC(C)(O)Cn1cc(C(=O)[C@@H]2COc3ccc(Cl)cc3C2)c2cnc(-c3c[nH]nc3Cl)cc21` [Compound 1-17]: the IC50 in assay [1] and in assay [2] was below 10 nM in each case.

`CC(C)(O)Cn1cc(C(=O)[C@H]2COc3ccc(Cl)cc3C2)c2cnc(-c3c[nH]nc3Cl)cc21` [Compound 1-18]: the IC50 in assay [1] was above 501 nM; in assay [2], 51 to 500 nM.

On to `CC(C)(O)Cn1cc(C(=O)[C@@H]2COc3ccc(Cl)cc3C2)c2cnc(-c3c[nH]nc3Cl)cc21` [Compound 1-19], for which the half-maximal inhibitory concentration (IC50) in assay [1] and in assay [2] was below 10 nM each time.

In the case of `C[C@H](O)Cn1cc(C(=O)C2COc3ccc(F)cc3C2)c2cnc(-c3c[nH]nc3Cl)cc21` (stereo partly drawn) [Compound 1-20], the IC50 in assay [1] and in assay [2] was below 10 nM each time.

`C[C@@H](O)Cn1cc(C(=O)C2COc3ccc(F)cc3C2)c2cnc(-c3c[nH]nc3Cl)cc21` (stereo partly drawn) [Compound 1-21]: the IC50 in assay [1] and in assay [2] was below 10 nM each time.

Consider `COc1ccc2c(c1)CC(C(=O)c1cn(CCO)c3nc(-c4c[nH]nc4Cl)ccc13)CO2` (stereo not drawn) [Compound 1-22], for which the IC50 in assay [1] and in assay [2] was below 10 nM in each case.

For `COc1ccc2c(c1)CC(C(=O)c1cn(CCO)c3cc(-c4c[nH]nc4Cl)ncc13)CO2` (stereo not drawn) [Compound 1-23], the 50% inhibitory concentration (IC50) in assay [1] and in assay [2] was below 10 nM each time.

For the compound `COc1ccc2c(c1)CC(C(=O)c1cn(CCO)c3cc(-c4cn[nH]c4F)ncc13)CO2` (stereo not drawn) [Compound 1-24], the IC50 in assay [1] and in assay [2] was below 10 nM each time.

Take `COc1ccc2c(c1)CC(C(=O)c1cn(C[C@H](C)O)c3cc(-c4cn[nH]c4F)ncc13)CO2` (stereo partly drawn) [Compound 1-25]: the IC50 is 11 to 50 nM in assay [1] and below 10 nM in assay [2].

In the case of `COc1ccc2c(c1)C[C@H](C(=O)c1cn(C[C@H](C)O)c3cc(-c4cn[nH]c4F)ncc13)CO2` [Compound 1-26], the 50% inhibitory concentration (IC50) in assay [1] and in assay [2] was below 10 nM in each case.

For `COc1ccc2c(c1)CC(C(=O)c1cn(C[C@H](C)O)c3cc(-c4cn[nH]c4Cl)ncc13)CO2` (stereo partly drawn) [Compound 1-27], the IC50 in assay [1] and in assay [2] was below 10 nM each time.

As for `COc1ccc2c(c1)CC(C(=O)c1cn(CC(C)(C)O)c3cc(-c4cn[nH]c4F)ncc13)CO2` (stereo not drawn) [Compound 1-28], the IC50 in assay [1] and in assay [2] was below 10 nM throughout.

Turning to `COc1ccc2c(c1)CC(C(=O)c1cn(CC(C)(C)O)c3cc(-c4cn[nH]c4Cl)ncc13)CO2` (stereo not drawn) [Compound 1-29], the half-inhibitory concentration (IC50) in assay [1] and in assay [2] was below 10 nM throughout.

Regarding `C[C@H](O)Cn1cc(C(=O)[C@@H]2COc3ccc(Cl)cc3C2)c2cnc(-c3cn[nH]c3F)cc21` [Compound 1-30], the IC50 in assay [1] is 11 to 50 nM; in assay [2], below 10 nM.

Turning to `CC(C)(O)Cn1cc(C(=O)[C@@H]2COc3ccc(Cl)cc3C2)c2cnc(-c3cn[nH]c3F)cc21` [Compound 1-31], the IC50 in assay [1] and in assay [2] was below 10 nM throughout.

As to `CC(C)(O)Cn1cc(C(=O)[C@@H]2COc3ccc(Cl)cc3C2)c2cnc(-c3c[nH]nc3Cl)cc21` [Compound 1-32], the IC50 in assay [1] was 11 to 50 nM; in assay [2], below 10 nM.

In the case of `COc1[nH]ncc1-c1cc2c(cn1)c(C(=O)[C@@H]1COc3ccc(Cl)cc3C1)cn2C[C@H](C)O` [Compound 1-33], the IC50 in assay [1] was 11 to 50 nM; in assay [2] it was below 10 nM.

On to `COc1[nH]ncc1-c1cc2c(cn1)c(C(=O)[C@H]1COc3ccc(Cl)cc3C1)cn2C[C@H](C)O` [Compound 1-34], for which the values for the IC50 in assay [1] and in assay [2] were 51 to 500 nM and 11 to 50 nM, respectively.

On to `CC[C@H](O)Cn1cc(C(=O)C2COc3ccc(Cl)cc3C2)c2cnc(-c3cn[nH]c3Cl)cc21` (stereo partly drawn) [Compound 1-35], for which the IC50 in assay [1] is 51 to 500 nM; in assay [2] it was 11 to 50 nM.

For the compound `CC[C@H](O)Cn1cc(C(=O)C2COc3ccc(Cl)cc3C2)c2cnc(-c3cn[nH]c3F)cc21` (stereo partly drawn) [Compound 1-36], the results for the IC50 in assay [1] and in assay [2] were 51 to 500 nM and 11 to 50 nM, respectively.
